Measured values as given in ChEMBL document CHEMBL3297736, “Rational improvement of the affinity and selectivity of integrin binding of grafted lasso peptides” (J Med Chem, 2014).
Peptide text beside a SMILES is read from it.

How the values were obtained:
Integrin alpha-V/beta-5 = Integrin alpha-V/beta-5 (Homo sapiens, UniProt P06756+P18084); experiment: Inhibition of vitronectin binding to human alphaVbeta5 integrin after 1 hr by ELISA; type: protein-complex assay
[1] = biological target: Integrin alpha-IIb/beta-3 (Homo sapiens, UniProt P05106+P08514); experiment: Inhibition of fibrinogen binding to human alpha2b/beta3 integrin after 1 hr by ELISA; type: protein-complex assay
Integrin alpha-V/beta-3 [2] = biological target: T1, Integrin alpha-V/beta-3 (Homo sapiens, UniProt P05106+P06756); experiment: Inhibition of vitronectin binding to human alphaVbeta3 integrin after 2 hrs by ELISA; type: protein-complex assay
Target sequence in this assay (P05106 27-788 limits assumed): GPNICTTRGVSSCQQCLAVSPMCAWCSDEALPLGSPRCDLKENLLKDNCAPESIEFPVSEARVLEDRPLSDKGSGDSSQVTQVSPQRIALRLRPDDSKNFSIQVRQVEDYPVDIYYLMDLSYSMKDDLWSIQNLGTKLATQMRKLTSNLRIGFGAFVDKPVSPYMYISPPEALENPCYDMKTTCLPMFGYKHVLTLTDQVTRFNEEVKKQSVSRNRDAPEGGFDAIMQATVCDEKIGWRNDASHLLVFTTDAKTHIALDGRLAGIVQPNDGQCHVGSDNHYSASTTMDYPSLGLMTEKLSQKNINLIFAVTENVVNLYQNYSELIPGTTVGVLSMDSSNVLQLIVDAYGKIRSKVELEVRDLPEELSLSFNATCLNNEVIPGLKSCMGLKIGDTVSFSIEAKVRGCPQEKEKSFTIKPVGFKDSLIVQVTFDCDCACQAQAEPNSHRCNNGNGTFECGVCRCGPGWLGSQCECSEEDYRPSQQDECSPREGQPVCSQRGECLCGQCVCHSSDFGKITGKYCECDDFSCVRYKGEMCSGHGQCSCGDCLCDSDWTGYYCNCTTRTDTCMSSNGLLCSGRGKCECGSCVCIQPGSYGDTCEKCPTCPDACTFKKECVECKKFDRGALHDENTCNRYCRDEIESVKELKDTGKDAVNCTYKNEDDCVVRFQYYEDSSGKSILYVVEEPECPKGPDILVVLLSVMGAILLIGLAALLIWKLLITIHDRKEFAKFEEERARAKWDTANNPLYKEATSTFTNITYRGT
Target sequence in this assay (P06756 31-889 limits assumed): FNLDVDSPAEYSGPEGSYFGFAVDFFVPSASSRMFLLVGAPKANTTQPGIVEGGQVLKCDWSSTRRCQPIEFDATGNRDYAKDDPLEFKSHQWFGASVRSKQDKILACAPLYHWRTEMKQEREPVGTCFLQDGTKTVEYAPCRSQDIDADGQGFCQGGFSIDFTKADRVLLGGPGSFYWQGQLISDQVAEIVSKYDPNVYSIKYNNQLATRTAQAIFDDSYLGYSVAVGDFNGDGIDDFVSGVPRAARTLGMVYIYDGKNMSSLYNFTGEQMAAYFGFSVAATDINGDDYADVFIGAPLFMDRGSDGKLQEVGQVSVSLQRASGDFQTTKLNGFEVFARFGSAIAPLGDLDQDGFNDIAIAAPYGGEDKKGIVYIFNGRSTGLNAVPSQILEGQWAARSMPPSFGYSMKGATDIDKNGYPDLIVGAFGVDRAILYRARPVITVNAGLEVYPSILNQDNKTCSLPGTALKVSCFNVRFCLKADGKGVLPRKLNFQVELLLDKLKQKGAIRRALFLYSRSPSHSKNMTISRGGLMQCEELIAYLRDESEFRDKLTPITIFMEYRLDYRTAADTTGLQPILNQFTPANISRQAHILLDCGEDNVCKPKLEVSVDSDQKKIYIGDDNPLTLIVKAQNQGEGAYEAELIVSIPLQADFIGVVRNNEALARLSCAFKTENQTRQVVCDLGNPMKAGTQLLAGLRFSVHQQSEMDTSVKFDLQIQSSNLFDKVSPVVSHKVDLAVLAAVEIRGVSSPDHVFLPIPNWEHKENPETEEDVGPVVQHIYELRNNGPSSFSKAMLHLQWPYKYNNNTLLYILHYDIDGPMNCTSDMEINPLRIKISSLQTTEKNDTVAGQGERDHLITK
Target sequence in this assay (P06756 891-1048 limits assumed): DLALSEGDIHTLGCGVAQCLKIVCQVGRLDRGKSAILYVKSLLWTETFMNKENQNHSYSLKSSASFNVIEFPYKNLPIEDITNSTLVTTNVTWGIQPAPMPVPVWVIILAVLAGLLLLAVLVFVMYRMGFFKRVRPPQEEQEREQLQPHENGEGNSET

Integrin alpha-V/beta-3 [3] = biological target: T1, Integrin alpha-V/beta-3; experiment: Inhibition of alphavbeta3 integrin-mediated cell adhesion in HUVEC after 15 mins by matrigel assay; type: protein-complex assay
Integrin alpha-V/beta-3 [4] = biological target: T1, Integrin alpha-V/beta-3; experiment: Inhibition of alphavbeta3 integrin-mediated capillary tube formation in HUVEC after 16 hrs by matrigel assay; type: protein-complex assay
Integrin alpha-5/beta-1 = Integrin alpha-5/beta-1 (Homo sapiens, UniProt P05556+P08648); experiment: Inhibition of fibronectin binding to human alpha5beta1 integrin after 1 hr by ELISA; type: protein-complex assay
Homo sapiens = species on record: Homo sapiens; experiment: Selectivity ratio IC50 for human alpha2b/beta3 integrin to IC50 for human alphaVbeta3 integrin

Sequence of Integrin alpha-V/beta-5 (P06756 31-889 limits assumed): as the sequence (P06756 31-889 limits assumed) above
Sequence of Integrin alpha-V/beta-5 (P06756 891-1048 limits assumed): as the sequence (P06756 891-1048 limits assumed) above
Sequence of Integrin alpha-V/beta-5 (P18084 24-799 limits assumed): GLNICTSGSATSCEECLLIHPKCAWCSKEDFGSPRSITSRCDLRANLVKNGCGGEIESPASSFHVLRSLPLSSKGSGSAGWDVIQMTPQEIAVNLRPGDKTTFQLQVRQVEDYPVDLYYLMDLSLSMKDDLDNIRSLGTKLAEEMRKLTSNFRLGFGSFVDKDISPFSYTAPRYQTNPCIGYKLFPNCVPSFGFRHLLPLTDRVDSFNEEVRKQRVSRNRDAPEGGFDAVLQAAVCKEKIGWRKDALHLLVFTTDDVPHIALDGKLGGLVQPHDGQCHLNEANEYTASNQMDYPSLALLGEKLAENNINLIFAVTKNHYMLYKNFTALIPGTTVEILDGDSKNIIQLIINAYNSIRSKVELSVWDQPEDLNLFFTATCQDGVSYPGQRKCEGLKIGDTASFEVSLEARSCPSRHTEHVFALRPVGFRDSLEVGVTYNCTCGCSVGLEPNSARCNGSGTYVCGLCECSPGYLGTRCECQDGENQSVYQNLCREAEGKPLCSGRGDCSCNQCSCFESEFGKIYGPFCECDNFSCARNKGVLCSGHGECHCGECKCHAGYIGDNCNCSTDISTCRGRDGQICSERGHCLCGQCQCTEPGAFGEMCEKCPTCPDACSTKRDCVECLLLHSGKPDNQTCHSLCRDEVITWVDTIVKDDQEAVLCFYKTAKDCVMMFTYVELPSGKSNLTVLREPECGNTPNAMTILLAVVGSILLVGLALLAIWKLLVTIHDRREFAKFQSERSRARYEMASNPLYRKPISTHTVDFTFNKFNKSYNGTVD
Sequence of Integrin alpha-IIb/beta-3 (P05106 27-788 limits assumed): as the sequence (P05106 27-788 limits assumed) above
Sequence of Integrin alpha-IIb/beta-3 (P08514 32-887 limits assumed): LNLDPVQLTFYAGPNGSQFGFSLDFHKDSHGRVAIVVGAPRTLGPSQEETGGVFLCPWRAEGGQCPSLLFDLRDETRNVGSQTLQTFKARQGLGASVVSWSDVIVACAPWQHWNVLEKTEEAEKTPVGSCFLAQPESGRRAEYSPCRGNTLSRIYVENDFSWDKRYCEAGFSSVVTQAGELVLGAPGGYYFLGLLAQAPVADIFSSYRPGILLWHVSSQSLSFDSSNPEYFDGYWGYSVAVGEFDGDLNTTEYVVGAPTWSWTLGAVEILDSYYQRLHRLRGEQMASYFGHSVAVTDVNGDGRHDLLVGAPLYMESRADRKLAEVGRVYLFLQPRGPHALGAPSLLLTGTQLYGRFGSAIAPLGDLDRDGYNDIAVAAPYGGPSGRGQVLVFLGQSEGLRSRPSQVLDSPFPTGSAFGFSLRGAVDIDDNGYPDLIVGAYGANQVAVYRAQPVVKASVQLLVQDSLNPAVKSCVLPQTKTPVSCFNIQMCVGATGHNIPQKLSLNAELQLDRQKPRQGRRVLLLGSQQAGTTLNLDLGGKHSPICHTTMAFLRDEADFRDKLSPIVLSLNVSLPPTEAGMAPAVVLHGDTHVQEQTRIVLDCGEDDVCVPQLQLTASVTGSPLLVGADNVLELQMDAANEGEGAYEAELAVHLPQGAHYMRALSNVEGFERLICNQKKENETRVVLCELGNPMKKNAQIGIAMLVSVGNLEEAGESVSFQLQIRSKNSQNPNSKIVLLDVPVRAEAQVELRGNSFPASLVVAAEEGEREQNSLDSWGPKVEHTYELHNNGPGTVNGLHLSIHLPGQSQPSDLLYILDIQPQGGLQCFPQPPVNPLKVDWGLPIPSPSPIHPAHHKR
Sequence of Integrin alpha-IIb/beta-3 (P08514 891-1039 limits assumed): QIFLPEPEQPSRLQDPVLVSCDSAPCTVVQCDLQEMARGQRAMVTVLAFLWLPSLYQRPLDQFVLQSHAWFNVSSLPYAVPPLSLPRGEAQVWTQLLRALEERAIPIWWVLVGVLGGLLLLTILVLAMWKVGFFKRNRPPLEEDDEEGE

| IC50 (Integrin alpha-V/beta-5) | IC50 [1] | IC50 (Integrin alpha-V/beta-3 [2]) | inhibition (Integrin alpha-V/beta-3 [3]) | inhibition (Integrin alpha-V/beta-3 [4]) | IC50 (Integrin alpha-5/beta-1) | Ratio IC50 (Homo sapiens) | SMILES |
| --- | --- | --- | --- | --- | --- | --- | --- |
| 38 µM | 130 µM | 12 µM |  |  |  |  | N=C(N)NCCC[C@H](N)C(=O)NCC(=O)N[C@@H](CC(=O)O)C(=O)O |
|  |  |  | Dose-dependent effect | Dose-dependent effect |  |  | NC(N)=NCCC[C@H](N)C(=O)NCC(=O)N[C@@H](CC(=O)O)C(=O)O |
| 92 µM | 725 µM | 4.1 µM | Dose-dependent effect | Dose-dependent effect | 1550 µM | 177 | N=C(N)NCCC[C@H](N)C(=O)NCC(=O)N[C@@H](CC(=O)O)C(=O)N[C@@H](Cc1ccccc1)C(=O)O (H-RGDF-OH) |
